# Experimental data as given in the supplement of paper PMC10307832.
# Legend:
# Experiment in all cases: relative viability (nuclei count vs DMSO), 5 days (fraction); higher = more cells survive
# [1] = compound: OCc1c[nH]c2ccccc12 [Indole-3-carbinol] + Cc1nc(NC(=O)N2CCC[C@H]2C(N)=O)sc1-c1ccnc(C(C)(C)C(F)(F)F)c1 [Alpelisib] (partner 2 µM)
# Method in brief: (§1)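 Dosing by pin tool came one day after lung cancer cell lines were seeded in 1536-well plates, using either one drug or a fixed anchor-drug dose plus five library-drug doses (not always all listed) in √10 steps. After 5 days, nuclei were counted on 4× images. Relative viability is treated-well nuclei count divided by vehicle-well nuclei count, and values are medians of duplicate plates.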
# [2] = compound: OCc1c[nH]c2ccccc12 [Indole-3-carbinol] + Nc1nc2[nH]cc(CCc3ccc(C(=O)N[C@@H](CCC(=O)O)C(=O)O)cc3)c2c(=O)[nH]1 [Pemetrexed] (partner 0.2 µM)
# Method in brief: as §1
# [3] = compound: OCc1c[nH]c2ccccc12 [Indole-3-carbinol] + Nc1ncn([C@H]2C[C@H](O)[C@@H](CO)O2)c(=O)n1 [Decitabine] (partner 2 µM)
# Method in brief: as §1
# [4] = compound: OCc1c[nH]c2ccccc12 [Indole-3-carbinol] + O=C(CCCCCCC(=O)Nc1ccccc1)NO [Vorinostat] (partner 1 µM)
# Method in brief: as §1
# [5] = compound: OCc1c[nH]c2ccccc12 [Indole-3-carbinol] + O=C(c1cc(Cc2n[nH]c(=O)c3ccccc23)ccc1F)N1CCN(C(=O)C2CC2)CC1 [Olaparib] (partner 8 µM)
# Method in brief: as §1
Cell Line,relative viability ([1]; first compound 0.253 µM),relative viability ([1]; first compound 0.8 µM),relative viability ([1]; first compound 2.53 µM),relative viability ([1]; first compound 8 µM),relative viability ([2]; first compound 0.253 µM),relative viability ([2]; first compound 0.8 µM),relative viability ([2]; first compound 2.53 µM),relative viability ([2]; first compound 8 µM),relative viability ([3]; first compound 0.253 µM),relative viability ([3]; first compound 0.8 µM),relative viability ([3]; first compound 2.53 µM),relative viability ([3]; first compound 8 µM),relative viability ([4]; first compound 0.253 µM),relative viability ([4]; first compound 0.8 µM),relative viability ([4]; first compound 2.53 µM),relative viability ([4]; first compound 8 µM),relative viability ([5]; first compound 0.253 µM),relative viability ([5]; first compound 0.8 µM),relative viability ([5]; first compound 2.53 µM),relative viability ([5]; first compound 8 µM)
SK-LU-1,1.01,1.03,1.07,0.99,1.02,1.03,1.09,1.02,0.689,0.626,0.757,0.719,0.795,0.865,0.757,0.839,0.478,0.438,0.569,0.589
NCI-H1437,0.928,1.04,0.937,0.811,0.311,0.337,0.312,0.318,0.591,0.599,0.599,0.591,0.827,0.979,0.861,0.868,0.65,0.675,0.639,0.619
NCI-H1734,0.692,0.725,0.719,0.674,0.413,0.417,0.454,0.418,0.51,0.456,0.477,0.46,0.799,0.809,0.803,0.774,0.61,0.619,0.613,0.58
LK-2,1.11,1.02,1.25,1.05,0.273,0.216,0.313,0.358,0.308,0.231,0.374,0.327,0.193,0.295,0.333,0.448,0.877,0.675,0.808,0.713
HCC-15,0.824,0.986,0.987,0.848,0.214,0.226,0.205,0.235,0.66,0.682,0.64,0.664,0.909,0.929,0.963,0.789,0.722,0.747,0.684,0.685
HCC-366,0.505,0.264,0.48,0.381,0.198,0.202,0.179,0.169,0.384,0.335,0.369,0.335,0.355,0.331,0.351,0.281,0.459,0.386,0.35,0.309
NCI-H650,1.06,1.18,1.05,0.953,0.959,0.851,0.937,1.04,0.354,0.323,0.344,0.338,0.654,0.454,0.411,0.456,0.395,0.403,0.418,0.359
NCI-H2347,1.06,1.08,1.14,0.868,0.425,0.415,0.437,0.41,0.678,0.58,0.509,0.574,0.521,0.638,0.526,0.506,0.624,0.582,0.634,0.549
LXF-289,1.03,1.1,1.09,0.99,0.944,1.02,0.934,0.851,0.383,0.324,0.362,0.369,0.836,0.795,0.733,0.76,1.24,1.09,1.09,1.08
BEN,0.948,0.808,1.02,0.929,0.75,0.704,0.757,0.905,0.689,0.784,0.726,0.749,0.512,0.512,0.63,0.631,1.09,1.05,1.12,1.06
NCI-H2023,0.587,0.587,0.592,0.626,0.245,0.269,0.252,0.258,0.213,0.213,0.212,0.198,0.727,0.526,0.588,0.572,0.471,0.564,0.518,0.422
NCI-H661,0.793,0.502,0.74,0.594,0.898,0.891,0.945,0.891,0.551,0.547,0.563,0.547,0.762,0.816,0.874,0.716,0.775,0.771,0.866,0.742
NCI-H1355,0.809,0.875,0.766,0.672,1.08,1.08,0.983,1.06,0.342,0.359,0.379,0.371,0.612,0.69,0.667,0.63,0.782,0.77,0.772,0.699
NCI-H1793,0.779,0.768,0.649,0.754,0.934,0.773,1.03,0.761,0.502,0.465,0.472,0.479,0.915,0.798,0.898,0.632,0.947,0.917,0.505,0.764
COR-L 105,1.07,1.21,0.925,0.979,1.09,0.996,1.19,0.981,0.607,0.598,0.631,0.626,0.916,0.847,0.73,0.862,0.642,0.655,0.713,0.685
NCI-H838,1.04,1.05,1.01,0.975,0.236,0.256,0.265,0.254,0.486,0.498,0.518,0.434,0.741,0.737,0.766,0.654,0.856,0.85,0.75,0.704

Cell Line,relative viability ([1]; first compound 0.253 µM),relative viability ([1]; first compound 0.8 µM),relative viability ([1]; first compound 2.53 µM),relative viability ([1]; first compound 8 µM),relative viability ([2]; first compound 0.253 µM),relative viability ([2]; first compound 0.8 µM),relative viability ([2]; first compound 2.53 µM),relative viability ([2]; first compound 8 µM),relative viability ([3]; first compound 0.253 µM),relative viability ([3]; first compound 0.8 µM),relative viability ([3]; first compound 2.53 µM),relative viability ([3]; first compound 8 µM),relative viability ([4]; first compound 0.253 µM),relative viability ([4]; first compound 0.8 µM),relative viability ([4]; first compound 2.53 µM),relative viability ([4]; first compound 8 µM),relative viability ([5]; first compound 0.253 µM),relative viability ([5]; first compound 0.8 µM),relative viability ([5]; first compound 2.53 µM),relative viability ([5]; first compound 8 µM)
EMC-BAC-2,0.715,0.731,0.741,0.665,0.393,0.441,0.439,0.448,0.953,0.96,0.957,0.889,0.423,0.444,0.421,0.447,0.493,0.51,0.504,0.467
LU99A,0.508,0.548,0.582,0.451,0.169,0.163,0.187,0.175,0.833,0.862,0.944,0.938,0.504,0.514,0.59,0.455,0.256,0.299,0.23,0.268
PC-3 [JPC-3],1.08,1.13,1.03,0.967,1.17,1.16,0.958,1.15,0.868,0.832,0.91,0.809,0.827,0.926,0.801,0.875,1.17,1.29,1.11,1.03
NCI-H596,0.387,0.48,0.417,0.47,0.474,0.508,0.517,0.486,1.04,0.971,1.06,0.959,0.552,0.522,0.565,0.675,0.602,0.738,0.451,0.653
LCLC-97TM1,0.203,0.277,0.242,0.227,0.167,0.197,0.185,0.154,0.259,0.249,0.199,0.223,0.858,1.01,0.818,0.646,0.38,0.552,0.489,0.265
NCI-H1993,0.723,0.663,0.631,0.674,0.59,0.69,0.548,0.567,0.641,0.657,0.573,0.623,0.697,1.05,0.958,0.783,1.01,1.12,0.98,0.927
HARA,0.759,0.808,0.93,0.773,0.267,0.239,0.243,0.242,0.566,0.549,0.637,0.47,0.515,0.627,0.505,0.511,0.568,0.77,0.331,0.701
NCI-H460,0.458,0.457,0.563,0.517,0.0608,0.0603,0.063,0.0679,0.564,0.44,0.518,0.473,0.768,0.76,0.754,0.683,0.38,0.377,0.455,0.375
EKVX,0.763,0.973,0.9,0.852,0.4,0.46,0.413,0.452,0.326,0.353,0.326,0.381,0.745,0.631,0.942,0.697,0.797,0.938,0.851,0.85
NCI-H1755,0.97,0.935,0.907,0.886,0.422,0.436,0.435,0.386,0.737,0.686,0.725,0.638,0.83,0.694,0.738,0.78,0.894,0.926,0.929,0.872
NCI-H1395,1.31,0.984,0.983,1.02,0.848,0.868,0.78,0.845,0.723,0.771,0.695,0.685,0.694,0.65,0.628,1.05,0.42,0.478,0.48,0.413
NCI-H2087,0.807,1.15,1.01,0.942,0.706,0.703,0.705,0.63,0.278,0.323,0.255,0.341,0.837,1.09,0.86,0.655,0.575,0.631,0.625,0.541
H3255,0.671,0.741,0.675,0.643,0.547,0.54,0.637,0.625,0.658,0.561,0.517,0.68,0.753,0.811,0.955,0.778,0.589,0.553,0.617,0.552
SK-MES-1,0.908,0.979,0.833,0.764,0.926,1.01,0.927,0.939,0.341,0.415,0.413,0.348,1.16,1.08,1.08,0.986,0.758,0.888,0.632,0.615
NCI-H23,0.618,0.723,0.637,0.629,0.738,0.773,0.844,0.788,0.335,0.314,0.316,0.291,0.516,0.615,0.704,0.587,0.316,0.353,0.3,0.276
HCC-827,0.911,1,0.99,0.985,0.261,0.258,0.278,0.255,0.379,0.337,0.312,0.34,0.767,0.903,0.896,0.839,0.67,0.621,0.719,0.61
